Experimental data published in patent publication US12502380B2, “MrgprX2 antagonists for the treatment of inflammatory disorders” (Dermira, Inc., priority 2019, dated 2025).

Target: T1, Human MrgprX2 (Homo sapiens, UniProt Q96LB1)
T1 construct: expressed in transfected cells
T1 sequence (Q96LB1 1-330): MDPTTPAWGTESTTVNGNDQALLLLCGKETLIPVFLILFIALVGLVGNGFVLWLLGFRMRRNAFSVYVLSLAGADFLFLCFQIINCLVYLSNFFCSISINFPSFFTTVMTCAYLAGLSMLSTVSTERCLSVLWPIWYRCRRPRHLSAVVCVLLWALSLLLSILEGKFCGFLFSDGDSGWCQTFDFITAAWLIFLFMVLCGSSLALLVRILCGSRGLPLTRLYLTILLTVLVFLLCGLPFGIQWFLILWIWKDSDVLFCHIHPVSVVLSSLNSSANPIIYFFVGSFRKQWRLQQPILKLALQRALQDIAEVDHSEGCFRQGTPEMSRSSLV
Experiment: Human MrgprX2 antagonist FLIPR intracellular calcium mobilization assay
Type: cell-based
Settings: antagonist activity, recombinant hMrgpMRGPRX2 expressing cells, read-out: Human MrgprX2 Antagonist pIC50 (converted)
Outline: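 Antagonist activity was read as inhibition of intracellular calcium mobilization (FLIPR) in recombinant cells expressing human MrgprX2. Potency was also checked in LAD-2 human mast cells with endogenous receptor, and orthologue activity in cells expressing mouse MrgprB2, mouse MrgprA1, and gerbil, Chinese hamster and cynomolgus orthologues.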

IC50	SMILES
15.8 nM	C[C@@H](O)CN(C)C(=O)Nc1ncc(Oc2ccccc2)s1 [Compound E148]
2 nM	C[C@H](O)CN(C)C(=O)Nc1ncc(Oc2ccccc2)s1 [Compound E149]
1.58 nM	C[C@@H](O)CN(C)C(=O)Nc1ncc(Oc2cccc(F)c2)s1 [Compound E150]
2 nM	C[C@H](O)CN(C)C(=O)Nc1ncc(Oc2ccc(F)cc2)s1 [Compound E151]
1.58 nM	C[C@H](O)CN(C)C(=O)Nc1ncc(Oc2cccc(F)c2)s1 [Compound E152]
0.794 nM	CCN(C[C@H](C)O)C(=O)Nc1ncc(Oc2cccc(Cl)c2)s1 [Compound E153]
0.631 nM	CCN(C[C@H](C)O)C(=O)Nc1ncc(Oc2ccc(F)cc2)s1 [Compound E154]
0.631 nM	CCN(C[C@H](C)O)C(=O)Nc1ncc(Oc2ccccc2)s1 [Compound E155]
39.8 nM	C[C@H](O)CN(C)C(=O)Nc1ncc(Oc2ccc(C#N)cc2)s1 [Compound E156]
126 nM	CCN(C[C@H](C)O)C(=O)Nc1ncc(Oc2ccc(C)nc2)s1 [Compound E157]
1.26 nM	CCN(C[C@H](C)O)C(=O)Nc1ncc(Oc2cncc(F)c2)s1 [Compound E158]
10 nM	C[C@H](O)CN(C)C(=O)Nc1ncc(Oc2cccc(C#N)c2)s1 [Compound E159]
2510 nM	C[C@H](O)CN(C)C(=O)Nc1ncc(Oc2ccc(C(F)(F)F)cc2)s1 [Compound E160]
316 nM	CCN(C[C@H](C)O)C(=O)Nc1ncc(Oc2ccc(C(F)(F)F)cc2)s1 [Compound E161]
1.58 nM	CCN(C[C@H](C)O)C(=O)Nc1ncc(Oc2cccc(C#N)c2)s1 [Compound E162]
1 nM	CCN(C[C@H](C)O)C(=O)Nc1ncc(Oc2ccc(C#N)c(F)c2)s1 [Compound E163]
3.16 nM	C[C@H](O)CN(C)C(=O)Nc1ncc(Oc2ccc(C#N)c(F)c2)s1 [Compound E164]
20 nM	C[C@H](O)CN(C)C(=O)Nc1ncc(Oc2ccc(F)c(C#N)c2)s1 [Compound E165]
100 nM	CCN(C[C@H](C)O)C(=O)Nc1ncc(Oc2cccnc2)s1 [Compound E166]
3160 nM	C[C@H](O)CN(C)C(=O)Nc1ncc(Oc2cccnc2)s1 [Compound E167]
3.98 nM	C[C@H](O)CN(C)C(=O)Nc1ncc(Oc2ccccc2F)s1 [Compound E168]
251 nM	C[C@H](O)CN(C)C(=O)Nc1ncc(Oc2ccc(F)nc2)s1 [Compound E169]
3.98 nM	CCN(C[C@H](C)O)C(=O)Nc1ncc(Oc2ccc(F)nc2)s1 [Compound E170]
0.794 nM	CCN(C[C@H](C)O)C(=O)Nc1ncc(Oc2ccccc2F)s1 [Compound E171]
1580 nM	C[C@H](O)CN(C)C(=O)Nc1ncc(Oc2cncc(C#N)c2)s1 [Compound E172]
31.6 nM	CCN(C[C@H](C)O)C(=O)Nc1ncc(Oc2cncc(C#N)c2)s1 [Compound E173]

IC50	SMILES
631 nM	C[C@H](O)CN(C)C(=O)Nc1ncc(Oc2ccccc2C#N)s1 [Compound E174]
316 nM	CCN(C[C@H](C)O)C(=O)Nc1ncc(Oc2ccccc2C#N)s1 [Compound E175]
50.1 nM	C[C@H](O)CN(C)C(=O)Nc1ncc(Oc2cncc(F)c2)s1 [Compound E176]
1580 nM	Cc1cncc(Oc2cnc(NC(=O)N(C)C[C@H](C)O)s2)c1 [Compound E177]
31.6 nM	CCN(C[C@H](C)O)C(=O)Nc1ncc(Oc2cncc(C)c2)s1 [Compound E178]
3980 nM	C[C@H](O)CN(C)C(=O)Nc1ncc(Oc2cncc(C(F)(F)F)c2)s1 [Compound E179]
251 nM	CCN(C[C@H](C)O)C(=O)Nc1ncc(Oc2cncc(C(F)(F)F)c2)s1 [Compound E180]
2510 nM	CCN(C[C@H](C)O)C(=O)Nc1ncc(Oc2ccnc(C#N)c2)s1 [Compound E181]
20 nM	C[C@H](O)CN(C)C(=O)Nc1ncc(Oc2cccc(C(F)(F)F)c2)s1 [Compound E182]
3.16 nM	CCN(C[C@H](C)O)C(=O)Nc1ncc(Oc2cccc(C(F)(F)F)c2)s1 [Compound E183]
5.01 nM	CCN(C[C@H](C)O)C(=O)Nc1ncc(Oc2ccc(F)c(C#N)c2)s1 [Compound E184]
2 nM	CCN(C[C@H](C)O)C(=O)Nc1ncc(Oc2ccnc(F)c2)s1 [Compound E185]
31.6 nM	CCN(CCO)C(=O)Nc1ncc(Oc2ccc(F)cc2)s1 [Compound E186]
1.26 nM	C[C@H](O)CN(C)C(=O)Nc1ncc(Oc2cc(F)cc(C#N)c2)s1 [Compound E187]
1.26 nM	CCN(C[C@H](C)O)C(=O)Nc1ncc(Oc2cc(F)cc(C#N)c2)s1 [Compound E188]
398 nM	C[C@H](O)CN(C)C(=O)Nc1ncc(Oc2ccc(C#N)cc2F)s1 [Compound E189]
6.31 nM	CCN(C[C@H](C)O)C(=O)Nc1ncc(Oc2ccc(C#N)cc2F)s1 [Compound E190]
794 nM	CCN(C[C@H](C)O)C(=O)Nc1ncc(Oc2ccc(F)cc2C#N)s1 [Compound E191]
3160 nM	C[C@H](O)CN(C)C(=O)Nc1ncc(Oc2ccc(F)cc2C#N)s1 [Compound E192]
39.8 nM	CCN(C[C@H](C)O)C(=O)Nc1ncc(Oc2cc(C#N)ccc2F)s1 [Compound E193]
501 nM	C[C@H](O)CN(C)C(=O)Nc1ncc(Oc2cc(C#N)ccc2F)s1 [Compound E194]
2000 nM	C[C@H](O)CN(C)C(=O)Nc1ncc(Oc2cc(F)ccc2C#N)s1 [Compound E195]
316 nM	CCN(C[C@H](C)O)C(=O)Nc1ncc(Oc2cc(F)ccc2C#N)s1 [Compound E196]
50.1 nM	CCN(C[C@H](C)O)C(=O)Nc1ncc(Oc2cccc(C#N)c2F)s1 [Compound E197]
398 nM	C[C@H](O)CN(C)C(=O)Nc1ncc(Oc2cccc(C#N)c2F)s1 [Compound E198]
251 nM	CCN(C[C@H](C)O)C(=O)Nc1ncc(Oc2cccc(F)c2C#N)s1 [Compound E199]

IC50	SMILES
1580 nM	C[C@H](O)CN(C)C(=O)Nc1ncc(Oc2cccc(F)c2C#N)s1 [Compound E200]
2510 nM	CCN(C[C@H](C)O)C(=O)Nc1ncc(Oc2cncnc2)s1 [Compound E201]
200 nM	CCN(C[C@H](C)O)C(=O)Nc1ncc(Oc2ccc(Cl)nc2)s1 [Compound E202]
100 nM	CCN(C[C@H](C)O)C(=O)Nc1ncc(Oc2cccnc2F)s1 [Compound E203]
3.16 nM	CCN(C[C@@H](C)O)C(=O)Nc1ncc(Oc2ccc(F)cc2)s1 [Compound E204]
251 nM	CN(CCO)C(=O)Nc1ncc(Oc2ccc(F)cc2)s1 [Compound E205]
6.31 nM	CCN(C[C@H](C)O)C(=O)Nc1ncc(Oc2cc(C)cc(C#N)c2)s1 [Compound E206]
1000 nM	CCN(C[C@H](C)O)C(=O)Nc1nc(C#N)c(Oc2ccc(F)cc2)s1 [Compound E207]
7.94 nM	CCN(C[C@H](C)O)C(=O)Nc1nc(C)c(Oc2ccc(F)cc2)s1 [Compound E208]
3.16 nM	CCN(C[C@H](C)O)C(=O)Nc1nc(C)c(Oc2cc(F)cc(C#N)c2)s1 [Compound E209]
2.51 nM	CCN(C[C@@H](C)O)C(=O)Nc1ncc(Oc2cc(F)cc(C#N)c2)s1 [Compound E210]
398 nM	CCN(C[C@@H](C)O)C(=O)Nc1ncc(Oc2ccc(C#N)cc2)s1 [Compound E211]
158 nM	CCN(C[C@H](C)O)C(=O)Nc1ncc(Oc2ccc(C#N)nc2)s1 [Compound E212]
1260 nM	CCN(C[C@H](C)O)C(=O)Nc1ncc(Oc2ccc(CC#N)cc2)s1 [Compound E213]
3160 nM	CCN(C[C@H](C)O)C(=O)Nc1ncc(Oc2ccc(C(=O)OC)cc2)s1 [Compound E214]
7940 nM	CCN(C[C@H](C)O)C(=O)Nc1cnc(Oc2cc(F)cc(F)c2)s1 [Compound E215]
7940 nM	CC(C)C(=O)Nc1cnc(Cc2cccc(F)c2)s1 [Compound E216, N-[2-[(3-fluorophenyl)methyl]thiazol-5-yl]-2-methyl-propanamide]
2000 nM	CC(C)NC(=O)c1ncc(Cc2cccc(F)c2)s1 [Compound E217, 5-[(3-fluorophenyl)methyl]-N-isopropyl-thiazole-2-carboxamide]
7940 nM	CC(C)N(C)C(=O)c1ncc(Cc2cccc(F)c2)s1 [Compound E218, 5-[(3-fluorophenyl)methyl]-N-isopropyl-N-methyl-thiazole-2-carboxamide]
794 nM	CC(C)C(=O)Nc1ncc(C(C)c2ccccc2)s1 (stereo not shown) [Compound E219, 2-methyl-N-[5-(1-phenylethyl)thiazol-2-yl]propanamide]
6310 nM	CC(C)NC(=O)c1nc(F)c(Cc2ccc(F)cc2)s1 [Compound E220, 4-fluoro-5-[(4-fluorophenyl)methyl]-N-isopropyl-thiazole-2-carboxamide]
6310 nM	CC(C)NC(=O)c1cc(Cc2cc(F)cc(F)c2)on1 [Compound E221, 5-[(3,5-difluorophenyl)methyl]-N-isopropyl-isoxazole-3-carboxamide]
3980 nM	CC(C)c1nc2ccc(Oc3ccccc3)cc2[nH]1 [Compound E222, 6-phenoxy-2-(propan-2-yl)-1H-1,3-benzodiazole]
7940 nM	CC(C)C(=O)Nc1csc(C(=O)NCc2ccccc2)c1 [Compound E223, N-benzyl-4-(2-methylpropanoylamino)thiophene-2-carboxamide]
